According to paper PMC9655717, “New Molecules of Diterpene Origin with Inhibitory Properties toward α-Glucosidase” (International Journal of Molecular Sciences, 2022):
Converted amounts (≈) assume the structure as drawn.

Tests used:
[1] = molecular target: T1, yeast α-GLy (α-glucosidase, Sigma G0660) (Saccharomyces cerevisiae, UniProt P53341); experiment: biochemical; format: biochemical; conditions: yeast α-glucosidase, 37°C, pH 6.8; read-out: IC50 ± SE, α-glucosidase inhibition
T1 construct: purchased Sigma G0660
Experimental: S1. Materials and Methods […]
glucosidase inhibition assay. α-Glucosidase enzyme inhibition assay was carried out in a 96-well microplate. The method’s principle based on the hydrolyzed reaction of 4-nitrophenyl-α-D-glucopiranoside with α-glucosidase enzyme into yellow 4- […]
p-Nitrophenyl α-D-Glucoside a- Gl ucosidas e α-D-Glucose + p- Nitrophenol α-Glucosidase inhibitory activity assay was performed following the modified method of Pistia Brueggeman and Hollingsworth with slight modification. Quinopimaric […]
concentrations of 256, 64, 16, 4 and 1 µg/mL. In a 96-well plate, a reaction mixture containing 20 μL of phosphate buffer (100 mM; pH 6.8), 20 μL of α-glucosidase (0.3 U/mL, Sigma G0660) (this concentration was determined by a series of α-glucosidase […]
linearity between the enzyme concentration and the absorbance of yellow color mixture after reaction which was approximately 5-fold higher than the back ground and at least […]
concentrations was pre-incubated for 10 min at 37°C. Then 20 μL of […] p-nitrophenyl α-D-glucopyranoside (Sigma N1377) was added to the mixture as a substrate. After further incubation at 37°C for 30 min, the reaction was stopped by adding 80 μL of 0.1 […]
solution were prepared using the phosphate buffer […]; pH 6.8. […]
as a positive control and water as negative control. The yellow color produced was quantitated by colorimetric analysis and reading the absorbance at 410 nm. Each experiment was performed in triplicates, along with appropriate blanks. The solvent DMSO was use as negative control to evaluate its effect on α-glucosidase activity. […]
or substrate in negative control. Back ground was determined by volume of buffer as […]
The % inhibition has been obtained using the formula:
% inhibition = {Absorbance (control) –Absorbance (sample)}/Absorbance (control) IC50 value is defined as the concentration of samples inhibiting 50% of α-glucosidase activity under the stated assay conditions. […]

[2] = test system: Bacillus subtilis (ATCC 6633); experiment: Antimicrobial broth microdilution; format: cell-based; conditions: ATCC6633, B. subtilis
Experimental: (§1) Table S2. The result of antimicrobial tests of compounds 38, 45, 48 and 50.
(§2) Gram (+) strains Gram (-) strains Fungi
(§3) Compound Values (µg/ml) S. aureus B. L. S. E. P. C. subtilis fermentum enterica coli aeruginosa albican
(§4) The antimicrobial activity was determined by broth microdilution method as reported by. Broth dilution testing is one of the common methods used for determination of the MICs and IC50. The compounds are examined for visible bacterial growth as evidenced by turbidity. […]
(§5) S1.5. In vitro antimicrobial activity study of compounds 38, 45, 48 and 50 The Gram-positive bacteria: Bacillus subtilis (ATCC 6633), Lactobacillus fermentum (N4), Staphylococcus aureus (ATCC 13709); Gram -negative bacteria: Escherichia coli (ATCC 25922), Pseudomonas aeruginosa (ATCC 15442), Salmonella enterica; Yeast: Candida albicans (ATCC 10231) were obtained from American Type Culture Collection. The bacterial […]
(§6) Sabourand 2% dextrose broth, were purchased from Merck. […]
(§7) remaining at –80 0 C. Before assay, they were activated by culture medium and, adjusted the concentration to 5x10^5 CFU/mL. 10 μL of each concentration of each test […]
(§8) further incubated at 37 °C within 16-24h. The experiment was triplicated. Positive […]
(§9) medium without bacteria as a negative control. Ampicillin was used as a reference […]
(§10) inhibiting 50% the visible growth of the tested microorganisms. MIC, IC50 values are typically expressed as molar concentration. […]
(§11) treated with sample different concentrations on 96-well plates. Untreated cells represented the controls. […]
(§12) crystals are visible. Remove MTT and add DMSO solution (100 μL). The optical density […]
(§13) are evaluated to have cytotoxic activity.

[3] = test system: Candida albicans (ATCC 10231); experiment: Antimicrobial broth microdilution; format: cell-based; conditions: ATCC10231, C. albican
Experimental: as §1, §2, §3, §4, §5, §6, §7, §8, §9, §10, §11, §12, §13

[4] = test system: Escherichia coli (ATCC 25922); experiment: Antimicrobial broth microdilution; format: cell-based; conditions: ATCC25922, E. coli
Experimental: as §1, §2, §3, §4, §5, §6, §7, §8, §9, §10, §11, §12, §13

[5] = test system: Lactobacillus fermentum (N4); experiment: Antimicrobial broth microdilution; format: cell-based; conditions: L. fermentum
Experimental: as §1, §2, §3, §4, §5, §6, §7, §8, §9, §10, §11, §12, §13

[6] = test system: Pseudomonas aeruginosa (ATCC 15442); experiment: Antimicrobial broth microdilution; format: cell-based; conditions: ATCC15442, P. aeruginosa
Experimental: as §1, §2, §3, §4, §5, §6, §7, §8, §9, §10, §11, §12, §13

Salmonella enterica = experiment: Antimicrobial broth microdilution; format: cell-based; conditions: S. enterica
Experimental: as §1, §2, §3, §4, §5, §6, §7, §8, §9, §10, §11, §12, §13

[7] = test system: Staphylococcus aureus (ATCC 13709); experiment: Antimicrobial broth microdilution; format: cell-based; conditions: ATCC13709, S. aureus
Experimental: as §1, §2, §3, §4, §5, §6, §7, §8, §9, §10, §11, §12, §13

MTT cytotoxicity assay = conditions: human
Experimental: The cytotoxic activity of compounds was evaluated against four cancer cell lines KB, Hep-G2, Lu-1 and MCF-7, using colorimetric MTT assay. […]
MTT assay was used to determine the cytotoxic activity of compounds with human cancer cell lines acquired from the American Type Culture Collection (ATCC): epidermoid carcinoma (KB, ATCC number CCL-17), hepatocellular carcinoma (HepG2, ATCC number HB-8065), lung adenocarcinoma LU-1 (ATCC number HTB - 57TM), breast adenocarcinoma MCF-7 (ATCC number HTB - 22TM. Cells were cultured in medium DMEM supplemented with 10% Fetal bovine serum (FBS), 1% Penicillin and Streptomycin and 1% L-glutamine, under a humidified atmosphere of 5% CO2 at 37°C.
Compounds were dissolved in DMSO at 40 mg/mL and a series of dilutions for each compound was prepared to final concentrations of 256, 64, 16, 4 and 1 μg/mL. Cells were separated with trypsin and seeded in each well with 3 x10^4 cells per ml and were treated with sample different concentrations on 96-well plates. Untreated cells represented the controls. After 72h of treatment, an MTT solution (10 μl, 5 mg/mL) of phosphate buffer was added to each well for 4 h until intracellular purple formazan crystals are visible. Remove MTT and add DMSO solution (100 μL). The optical density of the solution was determined by Epoch™ Microplate Spectrophotometer at 540 nm. The inhibition ratio was calculated based on the optical densities from the three replicate […]
as §13

T1 sequence (P53341 whole entry): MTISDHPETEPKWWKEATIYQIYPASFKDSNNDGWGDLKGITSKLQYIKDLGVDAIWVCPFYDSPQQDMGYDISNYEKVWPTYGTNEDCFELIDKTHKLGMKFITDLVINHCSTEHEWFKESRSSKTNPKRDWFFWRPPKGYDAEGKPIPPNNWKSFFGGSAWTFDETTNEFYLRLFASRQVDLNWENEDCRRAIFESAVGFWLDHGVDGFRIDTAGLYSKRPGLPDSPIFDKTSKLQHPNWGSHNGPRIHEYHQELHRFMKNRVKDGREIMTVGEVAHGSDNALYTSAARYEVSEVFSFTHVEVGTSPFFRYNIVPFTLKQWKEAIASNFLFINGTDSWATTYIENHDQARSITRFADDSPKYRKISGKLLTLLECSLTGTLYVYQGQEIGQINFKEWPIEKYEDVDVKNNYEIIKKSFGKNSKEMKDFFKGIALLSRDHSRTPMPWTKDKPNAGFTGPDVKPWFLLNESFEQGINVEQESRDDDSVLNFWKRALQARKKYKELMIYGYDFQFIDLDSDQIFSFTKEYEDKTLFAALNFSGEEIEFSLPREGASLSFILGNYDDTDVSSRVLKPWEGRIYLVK

Work on `C#CCOC(=O)C1(C)CCCC2(C)C1CCC13C=C(C(C)C)C(CC12)c1c(O)cc2c(C(=O)OC)c(C)[nH]c2c13` (stereo not shown) [Compound 45, Methyl 7-propynyl 1-hydroxy-13-isopropyl-7,10a,2′-trimethyl-5,6,6b,7,8,9,10,10a,10b,11,12,13-dodecahydro-12,4b-ethenophenanthro [2,1-g]indole-7,1′-dicarboxylate] yielded an IC50 [1] of 150 ± 8 nM, an IC50 [2] of over 256 µg/mL and an MIC [2] of over 256 µg/mL. The IC50 [3] was over 256 µg/mL, the MIC [3] was over 256 µg/mL and the IC50 [4] was over 256 µg/mL. The MIC [4] was over 256 µg/mL, the IC50 [5] was over 256 µg/mL and the MIC [5] was over 256 µg/mL. For the same molecule, the IC50 [6] was over 256 µg/mL, the MIC [6] was over 256 µg/mL and the IC50 (Salmonella enterica) was over 256 µg/mL. For the same molecule, the MIC (Salmonella enterica) was over 256 µg/mL, the IC50 [7] was over 256 µg/mL and the MIC [7] was over 256 µg/mL. For the same molecule, the IC50 at 72 h (MTT cytotoxicity assay; Hep-G2 hepatocellular carcinoma cells (ATCC HB-8065)) was 47.2 ± 1 µg/mL (≈ 86.8 µM), the IC50 at 72 h (MTT cytotoxicity assay; KB epidermoid carcinoma cells (ATCC CCL-17)) was 42.2 ± 0.84 µg/mL (≈ 77.6 µM) and the IC50 at 72 h (MTT cytotoxicity assay; Lu-1 lung adenocarcinoma cells (ATCC HTB-57)) was 16 ± 0.36 µg/mL (≈ 29.4 µM). For the same molecule, the IC50 at 72 h (MTT cytotoxicity assay; MCF-7 breast adenocarcinoma cells (ATCC HTB-22)) was 30.2 ± 0.8 µg/mL (≈ 55.6 µM).
